Where two headings read alike, the source gives them in different places.
What was measured:
[1] = system: MIA PaCa-2 cells; assay: MTS viability assay, MIA PaCa-2; assay type: cell-based; settings: Homo sapiens, 72-hour drug treatment, Figure 6E, highest concentration 350 μM
Experimental: Cells were harvested after 72 hours, and cell pellets were stored at –80°C. […] After 72 hours, cell viability was assessed by reduction of MTS using Cell Titer 96 R Aqueous One Solution Cell Proliferation Assay Kit (Promega, catalog G8081), following manufacturer’s recommendations. […] was measured on a SpectraMax M3 (Molecular Devices). Data were plotted in GraphPad Prism 9 to determine GI50 concentration. Chemical synthesis details, including characterization of each compound, can be found in the Supplemental section associated with this publication.

[2] = biological target: T1, DHFR (Homo sapiens, UniProt P00374); assay: Absorbance-based DHFR activity assay; assay type: biochemical
T1 construct: purchased Sigma D6566 (kit CS0340)
T1 sequence (P00374 1-187): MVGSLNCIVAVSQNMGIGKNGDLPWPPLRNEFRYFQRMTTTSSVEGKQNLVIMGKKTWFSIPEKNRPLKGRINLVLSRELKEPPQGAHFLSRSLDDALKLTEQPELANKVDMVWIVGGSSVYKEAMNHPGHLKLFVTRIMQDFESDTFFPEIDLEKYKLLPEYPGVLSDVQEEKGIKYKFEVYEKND
Experimental: DHFR assay kit (Sigma Aldrich, Cat # CS0340) as described by the manufacturer. 0.1-unit DHFR
analogues or control drugs, 6 μL NADPH Cat # N6505 solution and 5 μl of dihydrofolic acid (DHFR
substrate) (Sigma, Cat # D7006). The reaction was then read on the spectrophotometer at 340 nm at
22 °C every 15 seconds for 2.5 minutes.

[3] = biological target: T2, purified human TYMS (Homo sapiens, UniProt P04818); assay: Tritium-based TYMS catalytic activity assay; assay type: biochemical; settings: for TS activity, comparison at decreasing drug concentrations: Figure 6C; for TS activity (conversion of dUMP) in the presence of drug: drug 250 μM, 10 μg/mL TS protein, Figure 1B
T2 construct: 6xHis (N); made in house; host or cells: E. coli BL21 (DE3), vector pQE80L-hTYMS
Experimental: To determine the inhibition of TYMS activity, we utilized a tritium-based TYMS catalytic assay (Figure 1A) to quantify the conversion of dUMP, which is proportional to TYMS activity ([33]). The assay was based on a previously published protocol ([33]) and modified to determine the amount of purified human TYMS (hTYMS) to be used in the conversion of dUMP to dTMP. […]
Tritium based TYMS catalytic activity assay
The catalytic activity of TYMS was determined by measuring the release of [3H] from [5-3H]dUMP (ViTrax, Cat # VT122) resulting from the conversion of dUMP to dTMP as previously described (2, 3).
The reaction conditions were optimized to determine the amount of TYMS protein needed to establish […]
reactions performed without TYMS or without the 5,10-methylene tetrahydrofolate (5,10-mTHF) cofactor (Supplemental Figure 2 and Supplemental methods). Reactions were performed in 50 mM KH2PO4 (Sigma Aldrich, Cat # P0662) at pH 7.2 using 2 µg of purified human TYMS. Reactions were performed in a final volume of 200 µL with 100 mM β-mercaptoethanol (Sigma Aldrich, Cat # M7522), 40 µM dUMP (Sigma Aldrich, Cat # D3876), 100 µM 5,10-mTHF, and the [5-3H]dUMP tracer (ViTrax, Cat # VT122) accounting for 0.06% of the final dUMP concentration in the reaction. The 5,10-mTHF used in the reaction was separately generated from tetrahydrofolic acid (Sigma Aldrich, Cat # T3125) by dissolving the solid in 10 mM KH2PO4 with 143 mM β-mercaptoethanol (1:100 from 14.3 M pure liquid), and 6.35 mM formaldehyde (Sigma Aldrich, Cat # 47608) to yield a 100 mM stock solution of 5,10- mTHF. Reactions were initiated by the addition of the dUMP substrate and 5,10-mTHF cofactor, then incubated at 37 °C for 30 minutes. […]
before the reaction was initiated by the addition of the dUMP substrate and 5,10-mTHF cofactor.
Reactions were terminated by the addition of 100 µL of ice-cold 20% trichloroacetic acid (Sigma Aldrich, Cat # T6399), then excess [5-3H]dUMP was removed by the addition of 200 µL of an albumin-coated activated charcoal solution. The albumin-coated activated charcoal solution was prepared by mixing 10 g of acid- washed activated dextran coated charcoal (Sigma Aldrich, Cat # C6241) with 2.5 g of bovine albumin (Sigma Aldrich, Cat # A1933) in 100 mL of H2O. The suspension was incubated at room temperature for 30 minutes and then centrifuged for 30 minutes at 10,000 x g. Then 150 µL of the supernatant was collected and added to 5 mL of ultima gold liquid scintillation cocktail (Perkin Elmer, Cat # 6013326, lot: 77-19085), and scintillation measurements were perform using a liquid scintillation counter (Beckman Coulter LS6500) to determine [3H]H2O levels in each sample. For all experiments, positive control reactions were performed with no drug representing 100% TYMS activity, and negative

[4] = biological target: T2, purified human TYMS; assay: Competitive drug displacement assay (tritium TYMS assay); assay type: biochemical; settings: for dUMP conversion with increasing 5,10-mTHF concentration / dUMP conversion with increasing dUMP concentration: TS preincubated with drug, Figure 7
Experimental: For these experiments the TYMS protein was first incubated with each drug, and the reaction was then initiated by addition of 5,10-mTHF and dUMP using different concentrations of either 5,10-mTHF or dUMP to change the substrate/drug ratio. If there was competition between one of the substrates and the drug for the same binding site, then increasing the substrate concentration would displace more of the prebound drug and shift the equilibrium toward the enzyme/substrate complex, thus allowing the conversion of dUMP to proceed (Figure 7A). […]
all components including 2 µg TYMS protein to show the range of the assay, the background signal, and the dependence on 5,10-mTHF (Supplemental Figure 2C). To determine the signal from the [5-3H]dUMP tracer used in each reaction the same amount of the dUMP substrate with the [5-3H]dUMP tracer accounting for 0.06% of the final dUMP concentration was added directly to 5 mL of ultima gold liquid scintillation cocktail (Supplemental Figure 2C).
All reactions were performed in biological duplicate and technical duplicate. Results were analyzed using GraphPad Prism 9.
Competitive drug displacement assay
The tritium based TYMS catalytic activity assay was modified to determine if TYMS inhibition from 19-S, 19-S5, and 19-S7 was the result of competitive binding with either the dUMP substrate or the 5,10-mTHF cofactor. The competitive drug displacement assay utilized the standard reaction conditions for the tritium-based TYMS catalytic activity assay including 40 µM dUMP (Sigma Aldrich, Cat # D3876) with the [5- 3H]dUMP tracer (ViTrax, VT122) accounting for 0.06% of the final dUMP concentration and 100 µM 5,10- methylene tetrahydrofolate (defined as 1x dUMP and 1x 5,10-mTHF). Concentrations of total dUMP and 5,10- mTHF were then changed relative to these 1x concentrations to concisely indicate the changes in either the substrate or cofactor concentration. The highest 5x concentration of 5,10 - […]
5x concentration of total dUMP was not limited by solubility, although increases were performed in the same increments as 5,10-mTHF for comparison and 0.06% of the [5-3H]dUMP tracer was maintained at all concentrations. The remaining components in each 200 µL reaction were consistent in all reactions and included 2 µg of purified human TYMS in 50 mM KH2PO4 (Sigma Aldrich, Cat # P0662) and 100 mM β- mercaptoethanol (Sigma Aldrich, Cat # M7522). Control antifolate inhibitor PEM (Sigma Aldrich, Cat # PHR1596) was performed for reference of a TYMS specific classical antifolate and to […]
Human TYMS and DHFR preparation
Human Thymidylate Synthase (hTYMS) and human Dihydrofolate Reductase (hDHFR) were both expressed in BL21 (DE3) E. coli cells, using a standard BL21 transformation protocol, with the expression vector pQE80L-hTYMS (gift from Maria Paola Costi, University of Modena and Reggio Emilio, Italy) and pET100/D- TOPO (Invitrogen, Cat # K10001), respectively. Both vectors contained an N-terminal 6x Histidine tag attached to either hTYMS or hDHFR. After bacterial transformation, cells

T2 sequence (P04818 whole entry): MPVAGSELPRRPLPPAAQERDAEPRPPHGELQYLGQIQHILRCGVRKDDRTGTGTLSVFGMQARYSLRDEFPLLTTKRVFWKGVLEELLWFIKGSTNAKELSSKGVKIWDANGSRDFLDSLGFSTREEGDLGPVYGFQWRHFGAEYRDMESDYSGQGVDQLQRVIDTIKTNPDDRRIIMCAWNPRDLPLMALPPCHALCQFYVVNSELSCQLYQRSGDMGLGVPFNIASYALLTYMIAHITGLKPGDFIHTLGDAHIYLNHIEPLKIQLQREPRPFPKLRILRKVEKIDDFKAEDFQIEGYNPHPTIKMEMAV

Row | SMILES | dUMP conversion with increasing 5,10-mTHF concentration [4] | TS activity, comparison at decreasing drug concentrations [3] | dUMP conversion with increasing dUMP concentration [4] | TS activity (conversion of dUMP) in the presence of drug [3] | other results
1 | CCc1nc(N)nc(N)c1-c1ccc(N(C)Cc2ccc(OC)cc2)c([N+](=O)[O-])c1 [Compound 19-S5] | increased the amount of dUMP conversion | greater TYMS inhibition than both MTX and PEM | the amount of dUMP conversion did not increase |  | GI50 [1]: 280 nM; DHFR activity, comparison at reduced drug concentrations ([2]; Figure 6D): potent TYMS and DHFR inhibition; TS activity, screen of 19-S series analogs ([3]; 250 μM, Figure 6A): inhibited TYMS activity; Mechanism of TYMS inhibition [4]: blocking the folate-binding site
2 | CCc1nc(N)nc(N)c1-c1ccc(NCCOCCOCCN)c([N+](=O)[O-])c1 [Compound 19-S10] |  |  |  |  | DHFR activity, screen of 19-S series analogs ([2]; 1 μM, Figure 6B): exception
3 | O=c1[nH]c(=O)n([C@@H]2O[C@H](CO)[C@@H](O)[C@H]2O)cc1F [FUrd, 5-fluorouridine] |  |  |  | inactive | 
4 | O=c1[nH]c(=O)n([C@H]2C[C@H](O)[C@@H](CO)O2)cc1F [FdUrd, 5-fluoro-2′-deoxyuridine] |  |  |  | reduced conversion of dUMP | 
5 | Nc1nc2[nH]cc(CCc3ccc(C(=O)N[C@@H](CCC(=O)O)C(=O)O)cc3)c2c(=O)[nH]1 [PEM, pemetrexed] | increased the dUMP conversion | greater TYMS inhibition than the MTX antifolate | did not increase dUMP conversion |  | DHFR activity, comparison at reduced drug concentrations [2]: less effective against DHFR

From paper PMC10386886, “First-in-class multifunctional TYMS nonclassical antifolate inhibitor with potent in vivo activity that prolongs survival” (JCI Insight, 2023)
